What was measured:
Glucocorticoid receptor = Glucocorticoid receptor (Homo sapiens, UniProt P04150); experiment: GR Eurofins SafetyScan (Receptor)
Histamine H2 receptor = Histamine H2 receptor (Homo sapiens, UniProt P25021); conditions: Compound concentration 10.0 uM
[1] = molecular target: Alpha-1D adrenergic receptor (Homo sapiens) (UniProt P25100); conditions: Compound concentration 10.0 uM
[2] = molecular target: Voltage-gated inwardly rectifying potassium channel KCNH2 (Homo sapiens, UniProt Q12809); experiment: hERG Eurofins SafetyScreen (Other); parameters: species or system Blocker
[3] = molecular target: Muscarinic acetylcholine receptor M1 (Homo sapiens, UniProt P11229); experiment: CHRM1 Eurofins SafetyScan (Receptor)
Sequence of Muscarinic acetylcholine receptor M1 (P11229 whole entry): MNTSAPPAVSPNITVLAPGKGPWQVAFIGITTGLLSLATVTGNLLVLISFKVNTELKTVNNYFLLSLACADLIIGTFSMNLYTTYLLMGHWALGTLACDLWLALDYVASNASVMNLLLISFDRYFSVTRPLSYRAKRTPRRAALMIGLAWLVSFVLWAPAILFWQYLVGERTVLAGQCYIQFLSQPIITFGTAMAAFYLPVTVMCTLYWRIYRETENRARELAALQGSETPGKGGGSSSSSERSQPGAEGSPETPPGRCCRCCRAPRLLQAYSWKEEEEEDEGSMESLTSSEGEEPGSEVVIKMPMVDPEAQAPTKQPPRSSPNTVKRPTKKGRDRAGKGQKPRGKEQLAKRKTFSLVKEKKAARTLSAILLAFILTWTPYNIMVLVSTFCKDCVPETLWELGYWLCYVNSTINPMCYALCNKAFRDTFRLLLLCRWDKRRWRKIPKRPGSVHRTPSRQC

[4] = molecular target: 5-hydroxytryptamine receptor 2A (Homo sapiens, UniProt P28223); experiment: HTR2A Eurofins SafetyScan (Receptor)
[5] = molecular target: D(3) dopamine receptor (Homo sapiens) (UniProt P35462); conditions: Compound concentration 10.0 uM
[6] = molecular target: Cholecystokinin receptor type A (Homo sapiens, UniProt P32238); experiment: CCKAR Eurofins SafetyScan (Receptor)
Sequence of Cholecystokinin receptor type A (P32238 whole entry): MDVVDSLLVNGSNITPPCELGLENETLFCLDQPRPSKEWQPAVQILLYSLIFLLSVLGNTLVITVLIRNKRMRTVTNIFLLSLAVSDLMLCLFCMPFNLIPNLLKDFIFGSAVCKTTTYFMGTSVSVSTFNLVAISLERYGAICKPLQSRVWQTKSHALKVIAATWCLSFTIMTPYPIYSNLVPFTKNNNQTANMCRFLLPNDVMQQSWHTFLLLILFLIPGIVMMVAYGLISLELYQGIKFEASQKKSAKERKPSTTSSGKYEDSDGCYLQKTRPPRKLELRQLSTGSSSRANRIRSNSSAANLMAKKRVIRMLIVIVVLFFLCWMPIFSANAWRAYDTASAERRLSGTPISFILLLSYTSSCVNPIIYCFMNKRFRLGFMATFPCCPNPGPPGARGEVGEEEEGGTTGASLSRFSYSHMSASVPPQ

[7] = molecular target: Vascular endothelial growth factor receptor 2 (Homo sapiens, UniProt P35968); experiment: VEGFR2 Eurofins SafetyScreen (Other); parameters: species or system Inhibitor
[8] = molecular target: Sodium-dependent serotonin transporter (Homo sapiens, UniProt P31645); experiment: SERT Eurofins SafetyScreen (Other); parameters: species or system Blocker
[9] = molecular target: Muscarinic acetylcholine receptor M1 (Homo sapiens) (UniProt P11229); conditions: Compound concentration 10.0 uM
Sequence of Muscarinic acetylcholine receptor M1 (Homo sapiens) (P11229 whole entry): as the sequence (P11229 whole entry) above

[10] = molecular target: 5-hydroxytryptamine receptor 1A (Homo sapiens, UniProt P08908); experiment: HTR1A Eurofins SafetyScan (Receptor)
Sequence of 5-hydroxytryptamine receptor 1A (P08908 whole entry): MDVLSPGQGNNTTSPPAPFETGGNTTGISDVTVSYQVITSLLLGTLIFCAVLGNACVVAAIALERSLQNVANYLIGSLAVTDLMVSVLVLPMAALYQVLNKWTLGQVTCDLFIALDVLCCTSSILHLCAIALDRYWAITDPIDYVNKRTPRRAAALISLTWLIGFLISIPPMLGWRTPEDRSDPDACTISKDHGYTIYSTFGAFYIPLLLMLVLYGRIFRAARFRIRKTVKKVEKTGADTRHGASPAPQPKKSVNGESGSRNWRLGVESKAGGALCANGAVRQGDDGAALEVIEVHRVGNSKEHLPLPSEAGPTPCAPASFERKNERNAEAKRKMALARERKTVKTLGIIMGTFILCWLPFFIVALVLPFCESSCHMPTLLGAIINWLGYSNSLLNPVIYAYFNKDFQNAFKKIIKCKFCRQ

[11] = molecular target: T1, 5-hydroxytryptamine receptor 1D (Homo sapiens, UniProt P28221); experiment: GPCRScan assay: inhibition of 5-HT1D; parameters: radioligand conc. used [nm] 1.0 – 2.0, parental cells HEKT
T1 sequence (P28221 whole entry): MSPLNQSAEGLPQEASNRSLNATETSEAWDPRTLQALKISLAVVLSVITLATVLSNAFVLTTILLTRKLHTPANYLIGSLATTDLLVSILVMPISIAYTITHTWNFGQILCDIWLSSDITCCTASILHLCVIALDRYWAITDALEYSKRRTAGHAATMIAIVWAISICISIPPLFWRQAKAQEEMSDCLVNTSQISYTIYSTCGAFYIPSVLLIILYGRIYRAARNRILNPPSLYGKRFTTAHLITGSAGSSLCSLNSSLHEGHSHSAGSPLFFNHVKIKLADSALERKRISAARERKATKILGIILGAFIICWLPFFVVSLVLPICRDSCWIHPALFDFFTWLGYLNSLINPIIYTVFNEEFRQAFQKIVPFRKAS

[12] = molecular target: Alpha-2A adrenergic receptor (Homo sapiens, UniProt P08913); experiment: ADRA2A Eurofins SafetyScan (Receptor)
[13] = molecular target: T1, 5-hydroxytryptamine receptor 1D; conditions: Compound concentration 10.0 uM
[14] = molecular target: 5-hydroxytryptamine receptor 1B (Homo sapiens, UniProt P28222); conditions: Compound concentration 10.0 uM
[15] = molecular target: 5-hydroxytryptamine receptor 1E (Homo sapiens) (UniProt P28566); conditions: Compound concentration 10.0 uM
D(1A) dopamine receptor = D(1A) dopamine receptor (Homo sapiens, UniProt P21728); conditions: Compound concentration 10.0 uM
[16] = molecular target: Muscarinic acetylcholine receptor M2 (Homo sapiens, UniProt P08172); experiment: CHRM2 Eurofins SafetyScan (Receptor)
Sequence of Muscarinic acetylcholine receptor M2 (P08172 whole entry): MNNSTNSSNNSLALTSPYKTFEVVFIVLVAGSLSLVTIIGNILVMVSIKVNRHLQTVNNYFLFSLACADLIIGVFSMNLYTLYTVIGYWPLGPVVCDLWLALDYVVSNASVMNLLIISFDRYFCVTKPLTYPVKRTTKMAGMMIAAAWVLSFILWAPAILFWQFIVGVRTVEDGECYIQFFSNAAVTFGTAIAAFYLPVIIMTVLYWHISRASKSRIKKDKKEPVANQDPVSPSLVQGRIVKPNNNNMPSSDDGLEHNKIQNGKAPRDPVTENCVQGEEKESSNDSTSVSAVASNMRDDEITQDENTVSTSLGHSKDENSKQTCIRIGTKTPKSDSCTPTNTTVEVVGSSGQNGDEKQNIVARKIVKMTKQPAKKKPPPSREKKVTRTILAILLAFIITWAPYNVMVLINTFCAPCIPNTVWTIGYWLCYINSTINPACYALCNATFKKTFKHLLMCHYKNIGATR

[17] = molecular target: Sodium-dependent noradrenaline transporter (Homo sapiens, UniProt P23975); conditions: Compound concentration 10.0 uM
[18] = molecular target: Tyrosine-protein kinase Lck (Homo sapiens, UniProt P06239); experiment: LCK Eurofins SafetyScreen (Other); parameters: species or system Inhibitor
[19] = molecular target: Amine oxidase [flavin-containing] A (Homo sapiens, UniProt P21397); experiment: MAOA Eurofins SafetyScreen (Other); parameters: species or system Inhibitor
[20] = molecular target: Sodium-dependent dopamine transporter (Homo sapiens, UniProt Q01959); experiment: DAT Eurofins SafetyScreen (Other); parameters: species or system Blocker
[21] = molecular target: Beta-2 adrenergic receptor (Homo sapiens, UniProt P07550); experiment: ADRB2 Eurofins SafetyScan (Receptor)
Sequence of Beta-2 adrenergic receptor (P07550 whole entry): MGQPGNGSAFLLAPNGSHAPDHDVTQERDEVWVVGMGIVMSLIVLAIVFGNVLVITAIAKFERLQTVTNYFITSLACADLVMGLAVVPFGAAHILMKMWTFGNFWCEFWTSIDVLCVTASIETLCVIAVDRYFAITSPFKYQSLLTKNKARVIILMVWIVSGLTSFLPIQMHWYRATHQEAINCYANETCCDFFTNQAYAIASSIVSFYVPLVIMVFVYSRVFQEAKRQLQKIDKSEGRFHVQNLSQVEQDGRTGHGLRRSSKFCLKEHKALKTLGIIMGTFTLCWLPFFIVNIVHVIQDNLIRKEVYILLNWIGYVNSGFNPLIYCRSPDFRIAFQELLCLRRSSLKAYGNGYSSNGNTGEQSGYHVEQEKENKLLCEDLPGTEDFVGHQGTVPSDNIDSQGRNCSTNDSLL

[22] = molecular target: Sigma non-opioid intracellular receptor 1 (Homo sapiens) (UniProt Q99720); conditions: Compound concentration 10.0 uM
[23] = molecular target: Alpha-1A adrenergic receptor (Homo sapiens, UniProt P35348); experiment: ADRA1A Eurofins SafetyScan (Receptor)
[24] = molecular target: Glutamate receptor ionotropic, NMDA 2D (Homo sapiens, UniProt O15399+Q05586); experiment: GluN2D-containing NMDA receptor (Ca2+ influx) assay (EC50)
Endothelin-1 receptor = Endothelin-1 receptor (Homo sapiens, UniProt P25101); experiment: EDNRA Eurofins SafetyScan (Receptor)
[25] = molecular target: 5-hydroxytryptamine receptor 2B (Homo sapiens, UniProt P41595); experiment: HTR2B Eurofins SafetyScan (Receptor)
Sequence of 5-hydroxytryptamine receptor 2B (P41595 whole entry): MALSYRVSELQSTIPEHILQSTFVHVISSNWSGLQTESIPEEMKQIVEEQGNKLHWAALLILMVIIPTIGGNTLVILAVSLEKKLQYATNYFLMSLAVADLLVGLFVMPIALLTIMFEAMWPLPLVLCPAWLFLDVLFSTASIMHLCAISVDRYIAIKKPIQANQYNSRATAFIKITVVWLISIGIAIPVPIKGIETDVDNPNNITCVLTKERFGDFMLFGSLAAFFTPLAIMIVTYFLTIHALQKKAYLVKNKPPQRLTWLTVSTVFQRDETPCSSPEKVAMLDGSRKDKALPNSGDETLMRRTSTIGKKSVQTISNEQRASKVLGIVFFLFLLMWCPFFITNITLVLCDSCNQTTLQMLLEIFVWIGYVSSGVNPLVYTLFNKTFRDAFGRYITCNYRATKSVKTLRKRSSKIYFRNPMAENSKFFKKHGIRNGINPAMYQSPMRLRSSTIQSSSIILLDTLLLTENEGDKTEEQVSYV

[26] = molecular target: T2, Delta-type opioid receptor (Homo sapiens, UniProt P41143); conditions: Compound concentration 10.0 uM
T2 sequence (P41143 whole entry): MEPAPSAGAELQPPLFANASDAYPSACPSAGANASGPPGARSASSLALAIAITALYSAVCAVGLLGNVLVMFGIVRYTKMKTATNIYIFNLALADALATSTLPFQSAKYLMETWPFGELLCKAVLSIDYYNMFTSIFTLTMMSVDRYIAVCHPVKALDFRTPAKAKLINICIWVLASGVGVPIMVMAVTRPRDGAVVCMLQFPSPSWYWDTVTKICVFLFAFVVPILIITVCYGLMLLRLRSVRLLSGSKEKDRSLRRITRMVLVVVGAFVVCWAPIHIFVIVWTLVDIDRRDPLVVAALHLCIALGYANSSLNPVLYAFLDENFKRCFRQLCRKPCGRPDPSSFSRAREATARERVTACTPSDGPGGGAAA

[27] = molecular target: Prostaglandin G/H synthase 1 (Homo sapiens, UniProt P23219); experiment: COX1 Eurofins SafetyScreen (Other); parameters: species or system Inhibitor
[28] = molecular target: Muscarinic acetylcholine receptor M4 (Homo sapiens) (UniProt P08173); conditions: Compound concentration 10.0 uM
Cannabinoid receptor 1 = Cannabinoid receptor 1 (Homo sapiens, UniProt P21554); experiment: CNR1 Eurofins SafetyScan (Receptor)
Sequence of Cannabinoid receptor 1 (P21554 whole entry): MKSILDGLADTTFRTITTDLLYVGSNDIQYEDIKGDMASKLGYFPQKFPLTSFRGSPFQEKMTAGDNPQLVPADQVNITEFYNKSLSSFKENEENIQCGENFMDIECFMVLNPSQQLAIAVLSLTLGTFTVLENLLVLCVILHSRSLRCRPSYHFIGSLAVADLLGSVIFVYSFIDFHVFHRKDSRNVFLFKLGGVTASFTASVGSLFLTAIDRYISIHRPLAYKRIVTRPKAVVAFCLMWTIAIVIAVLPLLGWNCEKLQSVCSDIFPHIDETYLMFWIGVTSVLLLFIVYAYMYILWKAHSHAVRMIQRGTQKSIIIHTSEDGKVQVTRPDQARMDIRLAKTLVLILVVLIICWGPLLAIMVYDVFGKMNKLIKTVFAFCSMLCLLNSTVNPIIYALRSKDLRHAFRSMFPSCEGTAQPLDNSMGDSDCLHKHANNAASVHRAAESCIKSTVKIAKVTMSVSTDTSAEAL

[29] = molecular target: Neuronal acetylcholine receptor; alpha4/beta2 (Homo sapiens, UniProt P17787+P43681); experiment: nAChR(a4/b2) Eurofins SafetyScreen (Other); parameters: species or system Blocker
[30] = molecular target: Voltage-dependent L-type calcium channel subunit alpha-1C (Homo sapiens, UniProt Q13936); experiment: CAV1.2 Eurofins SafetyScreen (Other); parameters: species or system Blocker
Cannabinoid receptor 2 = Cannabinoid receptor 2 (Homo sapiens, UniProt P34972); experiment: CNR2 Eurofins SafetyScan (Receptor)
Sequence of Cannabinoid receptor 2 (P34972 whole entry): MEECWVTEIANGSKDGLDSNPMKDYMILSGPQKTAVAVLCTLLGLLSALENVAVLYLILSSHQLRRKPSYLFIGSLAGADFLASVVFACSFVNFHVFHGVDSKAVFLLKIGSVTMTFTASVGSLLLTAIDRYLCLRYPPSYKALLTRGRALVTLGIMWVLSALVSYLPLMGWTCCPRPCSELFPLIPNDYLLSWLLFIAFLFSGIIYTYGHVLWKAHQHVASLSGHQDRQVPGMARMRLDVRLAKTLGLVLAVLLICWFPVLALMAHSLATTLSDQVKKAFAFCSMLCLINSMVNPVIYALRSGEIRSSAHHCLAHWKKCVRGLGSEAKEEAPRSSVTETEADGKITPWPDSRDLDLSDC

[31] = molecular target: 5-hydroxytryptamine receptor 3A (Homo sapiens, UniProt P46098); experiment: HTR3A Eurofins SafetyScreen (Other); parameters: species or system Blocker
Adenosine receptor A2a = Adenosine receptor A2a (Homo sapiens, UniProt P29274); experiment: ADORA2A Eurofins SafetyScan (Receptor)
Sequence of Adenosine receptor A2a (P29274 whole entry): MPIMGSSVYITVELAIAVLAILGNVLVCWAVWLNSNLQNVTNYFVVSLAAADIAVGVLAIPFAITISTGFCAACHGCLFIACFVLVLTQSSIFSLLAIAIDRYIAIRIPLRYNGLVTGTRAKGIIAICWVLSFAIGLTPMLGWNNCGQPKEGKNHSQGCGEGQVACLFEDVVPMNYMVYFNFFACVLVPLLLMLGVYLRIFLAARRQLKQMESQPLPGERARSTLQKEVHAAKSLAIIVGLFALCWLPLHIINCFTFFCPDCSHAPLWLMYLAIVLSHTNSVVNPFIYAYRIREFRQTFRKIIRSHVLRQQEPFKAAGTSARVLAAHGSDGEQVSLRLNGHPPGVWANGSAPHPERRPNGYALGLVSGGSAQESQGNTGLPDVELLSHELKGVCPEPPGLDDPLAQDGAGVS

[32] = molecular target: T2, Delta-type opioid receptor; experiment: OPRD1 Eurofins SafetyScan (Receptor)
[33] = molecular target: Histamine H3 receptor (Homo sapiens) (UniProt Q9Y5N1); conditions: Compound concentration 10.0 uM
Acetylcholinesterase = Acetylcholinesterase (Homo sapiens, UniProt P22303); experiment: AChE Eurofins SafetyScreen (Other); parameters: species or system Inhibitor
[34] = molecular target: Sodium channel protein type 5 subunit alpha (Homo sapiens, UniProt Q14524); experiment: NAV1.5 Eurofins SafetyScreen (Other); parameters: species or system Blocker
[35] = molecular target: Prostaglandin G/H synthase 2 (Homo sapiens, UniProt P35354); experiment: COX2 Eurofins SafetyScreen (Other); parameters: species or system Inhibitor
[36] = molecular target: 5-hydroxytryptamine receptor 1A (Homo sapiens) (UniProt P08908); conditions: Compound concentration 10.0 uM
Sequence of 5-hydroxytryptamine receptor 1A (Homo sapiens) (P08908 whole entry): as the sequence (P08908 whole entry) above

[37] = molecular target: Alpha-1B adrenergic receptor (Homo sapiens) (UniProt P35368); conditions: Compound concentration 10.0 uM

Cc1cn([C@H](C)CC#N)c(=O)c2cc(Cn3nc(C(F)F)cc3Cl)nn12
active: inhibition [13] 90.8%
> 9.6 µM (not active): EC50 [24]
> 10 µM: EC50 (Glucocorticoid receptor) | IC50 (Glucocorticoid receptor) | IC50 [2] | EC50 [3] | IC50 [3] | EC50 [4] | IC50 [4] | EC50 [6] | IC50 [6] | IC50 [7] | IC50 [8] | EC50 [10] | IC50 [10] | Ki [11] | EC50 [12] | IC50 [12] | EC50 [16] | IC50 [16] | IC50 [18] | IC50 [19] | IC50 [20] | EC50 [21] | IC50 [21] | EC50 [23] | IC50 [23] | EC50 (Endothelin-1 receptor) | IC50 (Endothelin-1 receptor) | EC50 [25] | IC50 [25] | IC50 [27] | EC50 (Cannabinoid receptor 1) | IC50 (Cannabinoid receptor 1) | IC50 [29] | IC50 [30] | EC50 (Cannabinoid receptor 2) | IC50 (Cannabinoid receptor 2) | IC50 [31] | EC50 (Adenosine receptor A2a) | IC50 (Adenosine receptor A2a) | EC50 [32] | IC50 [32] | IC50 (Acetylcholinesterase) | IC50 [34] | IC50 [35]
< 5: pKi [11]
inactive: inhibition (Histamine H2 receptor) 3.64% | inhibition [1] 10.6% | inhibition [5] 33% | inhibition [9] 12.5% | inhibition [14] 21.7% | inhibition [15] 6.65% | inhibition (D(1A) dopamine receptor) 1.34% | inhibition [17] -4% | inhibition [22] 1.48% | inhibition [26] -4.95% | inhibition [28] 4.14% | inhibition [33] 34.8% | inhibition [36] -5.4% | inhibition [37] -6.73%
